This note sets out measurements from paper PMC6961810 (2019).

Assay [1] concerns wt-mt (RNA, rRNA) GGCGUCACCCUCCUC/GAGGAGACAAGUCGCC
Put plainly: fluorescence titration. To be noted: 150 mM NaCl, 3 mM Na2EDTA; apparent; 10 mM HEPES pH 7.4; 1 μM RNA.

Assay [2] deals with mut-mt (RNA, rRNA) GGCGUCACCCUCCUC/GAGGAGGCAAGUCGCC
Description: fluorescence titration. To be noted: 150 mM NaCl, 3 mM Na2EDTA; apparent; 10 mM HEPES pH 7.4; 1 μM RNA.

In the case of `CCC[C@H]1[C@H](O)[C@@H](N)[C@@H](O[C@H]2[C@H](O[C@@H]3O[C@H](CO)[C@@H](O[C@H]4O[C@@H](CN)[C@@H](O)[C@H](O)[C@H]4N)[C@H]3O)[C@@H](O)[C@H](N)C[C@@H]2N)O[C@@H]1CO`, the Kd in assay [1] came out at 26.9 ± 4.7 µM; in assay [2] it was 5.8 ± 1.8 µM.
Take `CCO[C@H]1[C@H](O)[C@@H](N)[C@@H](O[C@H]2[C@H](O[C@@H]3O[C@H](CO)[C@@H](O[C@H]4O[C@@H](CN)[C@@H](O)[C@H](O)[C@H]4N)[C@H]3O)[C@@H](O)[C@H](N)C[C@@H]2N)O[C@@H]1CO`: the Kd in assay [1] was 12.8 ± 2.8 µM; in assay [2] it was 8.6 ± 2.1 µM.
Regarding `NC[C@@H]1O[C@H](O[C@H]2[C@@H](O)[C@H](O[C@@H]3[C@@H](O)[C@H](N)C[C@H](N)[C@H]3O[C@H]3O[C@H](CN)[C@@H](O)[C@H](O)[C@H]3N)O[C@@H]2CO)[C@H](N)[C@@H](O)[C@@H]1O`, the Kd was 1.1 ± 0.5 µM in assay [1] and 0.1 ± 0.02 µM in assay [2].
Turning to `NC[C@@H]1O[C@H](O[C@H]2[C@@H](O)[C@H](O[C@@H]3[C@@H](O)[C@H](N)C[C@H](N)[C@H]3O[C@H]3O[C@H](CO)[C@@H](O)[C@H](O)[C@H]3N)O[C@@H]2CO)[C@H](N)[C@@H](O)[C@@H]1O`, the Kd in assay [1] is 6.5 ± 0.9 µM; in assay [2] it was 2.8 ± 0.5 µM.
